Experimental data as given in US20260232573A1, “DEGARELIX ORGANIC SOLVENT FORMULATIONS” (TOLMAR INTERNATIONAL LIMITED, priority 2023, published 2026).
Non-standard residues stand in square brackets, D forms with d. Residues, ends and D or L forms follow the SMILES beside them. *: point of attachment. dPhe(4-NHCONH2) = NC(=O)Nc1ccc(C[C@@H](N)C(=O)O)cc1; Dihydroorotyl(S) = O=C1C[C@@H](C(=O)*)NC(=O)N1; dPhe(4-Cl) = N[C@H](Cc1ccc(Cl)cc1)C(=O)O; Phe(4-NH2) = Nc1ccc(C[C@H](N)C(=O)O)cc1; d2Nal = N[C@H](Cc1ccc2ccccc2c1)C(=O)O; Lys(iPr) = CC(C)NCCCC[C@H](N)C(=O)O; d3Pal = N[C@H](Cc1cccnc1)C(=O)O

Type: physicochemical
Text: Various organic solvents were screened for the maximal solubility of DgA-DS. […] Other solvents tested include-benzyl alcohol, PEG 300, propylene carbonate, triacetin, triethyl citrate, ethyl acetate, and benzyl benzoate.
Bulk solution: To produce the drug/solvent bulk solution comprising the active pharmaceutical ingredient (DgA or DgC), the desired amount of the DgA-DS or DgC-DS was combined with the solvent NMP or DMSO or combination of solvents with or without co-solvent or other additives, in the indicated amounts (see individual experiments below). The API and solvent were combined in a glass vial or jar and blanketed with nitrogen. Jars were mixed using the jar mill, Turbula, or shaker at room temperature until homogeneous. DgA or DgC are very soluble in NMP or DMSO and can load higher concentrations (at least 40% w/w).

| concentration that can be loaded (solubility) | solubility capacity of degarelix | Compound | solubility |
| --- | --- | --- | --- |
| at least 40 % w/w | 35-40 % w/w | CC(=O)N[C@H](Cc1ccc2ccccc2c1)C(=O)N[C@H](Cc1ccc(Cl)cc1)C(=O)N[C@H](Cc1cccnc1)C(=O)N[C@@H](CO)C(=O)N[C@@H](Cc1ccc(NC(=O)[C@@H]2CC(=O)NC(=O)N2)cc1)C(=O)N[C@H](Cc1ccc(NC(N)=O)cc1)C(=O)N[C@@H](CC(C)C)C(=O)N[C@@H](CCCCNC(C)C)C(=O)N1CCC[C@H]1C(=O)N[C@H](C)C(N)=O [DgA-DS, degarelix acetate] (Ac-[d2Nal][dPhe(4-Cl)][d3Pal]S[Phe(4-NH2)](Dihydroorotyl(S))[dPhe(4-NHCONH2)]L[Lys(iPr)]P[dA]-NH2) | either insoluble or has solubility limits much lower than NMP, DMSO or DMA |
| at least 40 % w/w | – | degarelix citrate [DgC] | – |
